Where a name gives a salt, the structure may show the parent alone. Numbered stars: 1 amine (or outer) side, 2 acyl side, 3 side chain; on linkers, the order of the positions; unused ones are H or OH. Bridge positions count the residues as written; N and C are the ends. Square brackets hold non-standard residues; d marks the D form. Peptide text beside a SMILES is read from it. * marks the point of attachment. hTyr(3S-OH,4S-OH,3'-OSO3H) = N[C@H](C(=O)O)[C@H](O)[C@@H](O)c1ccc(O)c(OS(=O)(=O)O)c1; Orn(4R-OH,5R-OH) = O=C([C@H](C[C@@H](O)[C@@H](O)N[*:3])N[*:1])[*:2]; Pro(3S-OH,4S-Me) = C[C@H]1CN[C@H](C(=O)O)[C@H]1O; X1 = CCCCCOc1ccc(-c2cc(-c3ccc(C(=O)*)cc3)no2)cc1; Gln(3R-OH) = NC(=O)C[C@@H](O)[C@H](N)C(=O)O; Hyp = O=C(O)[C@@H]1C[C@@H](O)CN1
Conditions: human
Compound `CN1CCC(=C2c3ccccc3CCn3c(C=O)cnc32)CC1` [alcaftadine] has an ROR of 12.53.
For `Cc1nnc2n1-c1ccc(Cl)cc1C(c1ccccc1)=NC2` [alprazolam], the “Adverse Event Seriousness” value was 13.30, the Outcome was 21.02 and the ROR was 6.40. For the same compound, the RxScore was 72.84.
With `CC[C@H]1OC(=O)[C@H](C)[C@@H](O[C@H]2C[C@@](C)(OC)[C@@H](O)[C@H](C)O2)[C@H](C)[C@@H](O[C@@H]2O[C@H](C)C[C@H](N(C)C)[C@H]2O)[C@](C)(O)C[C@@H](C)CN(C)[C@H](C)[C@@H](O)[C@]1(C)O` [azithromycin] the ROR was 13.60.
For `C[C@H]1[C@H](NC(=O)/C(=N\OC(C)(C)C(=O)O)c2csc(N)n2)C(=O)N1S(=O)(=O)O` [aztreonam], the “Adverse Event Seriousness” value was 14.58, the Outcome was 22.41 and the ROR was 5.83. The RxScore was 75.34.
`CC(C)C[C@H](NC(=O)[C@H](CCc1ccccc1)NC(=O)CN1CCOCC1)C(=O)N[C@@H](Cc1ccccc1)C(=O)N[C@@H](CC(C)C)C(=O)[C@@]1(C)CO1` [carfilzomib] showed an Outcome of 22.81.
In the case of `CCCC(C)(COC(N)=O)COC(=O)NC(C)C` (stereo not drawn) [carisoprodol], the “Adverse Event Seriousness” value is reported as 17.03, the Outcome is reported as 26.05 and the ROR is reported as 9.07. The RxScore was 83.70.
In the case of `Nc1nc(Cl)nc2c1ncn2[C@@H]1O[C@H](CO)[C@@H](O)[C@@H]1F` [clofarabine], the Outcome is reported as 23.27.
In the case of `O=C1CN=C(c2ccccc2Cl)c2cc([N+](=O)[O-])ccc2N1` [clonazepam], the “Adverse Event Seriousness” value is reported as 11.38, the Outcome is reported as 15.34 and the ROR is reported as 3.43. For the same compound, the RxScore was 51.36.
With `CN1CCN(C2=Nc3cc(Cl)ccc3Nc3ccccc32)CC1` [clozapine] the “Adverse Event Seriousness” value was 16.28 and the Outcome was 23.55.
In the case of `CN(C)CCC=C1c2ccccc2C=Cc2ccccc21` [cyclobenzaprine hydrochloride], the “Adverse Event Seriousness” value is reported as 12.25, the Outcome is reported as 22.45 and the ROR is reported as 6.09. For the same compound, the RxScore was 72.46.
With `CCCCC[C@H](O)/C=C/[C@H]1[C@H](O)CC(=O)[C@@H]1C/C=C\CCCC(=O)O` [dinoprostone] the “Adverse Event Seriousness” value was 15.66, the Outcome was 19.09 and the ROR was 10.62. It also gave a RxScore of 74.95.
For `CCCC(CCC)C(=O)O` [divalproex sodium], the “Adverse Event Seriousness” value was 8.51, the Outcome was 11.14 and the ROR was 3.85. For the same compound, the RxScore was 41.09.
For `CNC[C@H](O)c1ccc(O)c(O)c1` [epinephrine injection, epinephrine], the “Adverse Event Seriousness” value was 4.69, the Outcome was 21.03 and the ROR was 16.91. The RxScore was 73.02.
For `C#Cc1cccc(Nc2ncnc3cc(OCCOC)c(OCCOC)cc23)c1` [erlotinib hydrochloride], the “Adverse Event Seriousness” value was 18.95.
For `C[C@]12CC[C@@H]3c4ccc(O)cc4CC[C@H]3[C@@H]1CC[C@@H]2O` [estradiol], the “Adverse Event Seriousness” value was 20.16 and the ROR was 13.26.
In the case of `CCC1(C)CC(=O)NC1=O` (stereo not drawn) [ethosuximide], the “Adverse Event Seriousness” value is reported as 7.71, the Outcome is reported as 10.64 and the ROR is reported as 2.92. It also gave a RxScore of 41.01.
In the case of `NC(=O)OCC(COC(N)=O)c1ccccc1` [felbamate], the “Adverse Event Seriousness” value is reported as 7.72, the Outcome is reported as 14.26 and the ROR is reported as 2.81. The RxScore was 43.92.
For `O=C1NC(c2ccccc2)(c2ccccc2)C(=O)N1COP(=O)(O)O` [fosphenytoin sodium], the “Adverse Event Seriousness” value was 8.16, the Outcome was 15.85 and the ROR was 5.09. It also gave a RxScore of 46.69.
In the case of `CC(OC(=O)NCC1(CC(=O)O)CCCCC1)OC(=O)C(C)C` (stereo not drawn) [gabapentin enacarbil], the “Adverse Event Seriousness” value is reported as 4.67, the Outcome is reported as 7.53 and the ROR is reported as 2.64. For the same compound, the RxScore was 42.19.
In the case of `NCC1(CC(=O)O)CCCCC1` [gabapentin], the “Adverse Event Seriousness” value is reported as 9.67, the Outcome is reported as 11.51 and the ROR is reported as 2.86. For the same compound, the RxScore was 43.00.
With `CCCCCC(=O)O[C@]1(C(C)=O)CC[C@H]2[C@@H]3CCC4=CC(=O)CC[C@]4(C)[C@H]3CC[C@@]21C` [hydroxyprogesterone caproate] the ROR was 12.09.
With `CCCCCN(C)CCC(O)(P(=O)(O)O)P(=O)(O)O` [ibandronate sodium] the “Adverse Event Seriousness” value was 10.42, the Outcome was 13.02 and the ROR was 3.13. The RxScore was 45.79.
In the case of `Nc1nnc(-c2cccc(Cl)c2Cl)c(N)n1` [lamotrigine], the “Adverse Event Seriousness” value is reported as 8.89, the Outcome is reported as 10.41 and the ROR is reported as 3.57. For the same compound, the RxScore was 42.04.
For `CC(=O)O[C@]1(C(C)=O)CC[C@H]2[C@@H]3C[C@H](C)C4=CC(=O)CC[C@]4(C)[C@H]3CC[C@@]21C` [medroxyprogesterone acetate], the “Adverse Event Seriousness” value was 19.89 and the ROR was 12.89.
In the case of `CN[C@@H](C)Cc1ccccc1` [methamphetamine hydrochloride], the “Adverse Event Seriousness” value is reported as 15.73, the Outcome is reported as 20.20 and the ROR is reported as 12.29. For the same compound, the RxScore was 78.80.
`COC(=O)C(c1ccccc1)C1CCCCN1` (stereo not drawn) [methylphenidate] gave an ROR of 13.69.
With `CCCCCOc1ccc(-c2cc(-c3ccc(C(=O)N[C@H]4C[C@@H](O)[C@@H](O)NC(=O)[C@@H]5[C@@H](O)[C@@H](C)CN5C(=O)[C@H]([C@H](O)CC(N)=O)NC(=O)[C@H]([C@H](O)[C@@H](O)c5ccc(O)c(OS(=O)(=O)O)c5)NC(=O)[C@@H]5C[C@@H](O)CN5C(=O)[C@H]([C@@H](C)O)NC4=O)cc3)no2)cc1` [micafungin sodium] (X1-[Orn(4R-OH,5R-OH)]T[Hyp][hTyr(3S-OH,4S-OH,3'-OSO3H)][Gln(3R-OH)][Pro(3S-OH,4S-Me)]; lactam 1-C) the Outcome was 22.48.
In the case of `O=C1CCCC(=O)C1C(=O)c1ccc(C(F)(F)F)cc1[N+](=O)[O-]` [nitisinone], the “Adverse Event Seriousness” value is reported as 15.20, the Outcome is reported as 23.09 and the ROR is reported as 5.32. The RxScore was 74.78.
In the case of `[N]=O` [nitric oxide], the “Adverse Event Seriousness” value is reported as 19.58.
For `NCCC(O)(P(=O)(O)O)P(=O)(O)O` [pamidronate disodium], the “Adverse Event Seriousness” value was 12.75, the Outcome was 6.73 and the ROR was 11.49. For the same compound, the RxScore was 51.86.
For `N#Cc1ccccc1-c1cc(-c2ccccn2)cn(-c2ccccc2)c1=O` [perampanel], the “Adverse Event Seriousness” value was 7.92, the Outcome was 14.67 and the ROR was 3.53. It also gave a RxScore of 47.40.
For `CC(C)(N)Cc1ccccc1` [phentermine], the ROR was 12.22.
With `O=C1NC(=O)C(c2ccccc2)(c2ccccc2)N1` [phenytoin sodium] the “Adverse Event Seriousness” value was 8.38, the Outcome was 12.65 and the ROR was 5.12. The RxScore was 44.47.
`Nc1cccc2c1C(=O)N(C1CCC(=O)NC1=O)C2=O` (stereo not drawn) [pomalidomide] gave an Outcome of 25.31.
In the case of `CC(C)C[C@H](CN)CC(=O)O` [pregabalin], the “Adverse Event Seriousness” value is reported as 7.13, the Outcome is reported as 8.25 and the ROR is reported as 2.21. For the same compound, the RxScore was 36.30.
For `CCC1(c2ccccc2)C(=O)NCNC1=O` [primidone], the “Adverse Event Seriousness” value was 8.70, the Outcome was 10.86 and the ROR was 3.59. The RxScore was 42.07.
`C=C[C@]1(C)C[C@@H](OC(=O)CS[C@@H]2C[C@H]3CC[C@@H](C2)N3C)[C@]2(C)[C@H](C)CC[C@]3(CCC(=O)[C@H]32)[C@@H](C)[C@@H]1O` [retapamulin] gave an ROR of 12.35.
For `CN1C(=O)C(O)N=C(c2ccccc2)c2cc(Cl)ccc21` (stereo not drawn) [temazepam], the “Adverse Event Seriousness” value was 12.79, the Outcome was 22.08 and the ROR was 5.17. For the same compound, the RxScore was 72.69.
In the case of `O=C1CCC(N2C(=O)c3ccccc3C2=O)C(=O)N1` (stereo not drawn) [thalidomide], the “Adverse Event Seriousness” value is reported as 17.30 and the Outcome is reported as 22.64.
In the case of `Cc1ccsc1C(=CCCN1CCC[C@@H](C(=O)O)C1)c1sccc1C` [tiagabine hydrochloride], the “Adverse Event Seriousness” value is reported as 10.82, the Outcome is reported as 12.04 and the ROR is reported as 6.41. For the same compound, the RxScore was 48.70.
With `CC1(C)O[C@@H]2[C@@H](CO[C@@]3(COS(N)(=O)=O)OC(C)(C)O[C@@H]23)O1` [topiramate] the “Adverse Event Seriousness” value was 11.28, the Outcome was 11.96 and the ROR was 4.29. It also gave a RxScore of 47.54.
In the case of `CCCC(CCC)C(=O)[O-].[Na+]` [valproate sodium], the “Adverse Event Seriousness” value is reported as 10.26, the Outcome is reported as 13.09 and the ROR is reported as 5.64. It also gave a RxScore of 48.83.
In the case of `CCCC(CCC)C(=O)O` [valproic acid], the “Adverse Event Seriousness” value is reported as 12.54, the Outcome is reported as 16.41 and the ROR is reported as 5.34. The RxScore was 54.78.
With `C=CC(N)CCC(=O)O` (stereo not drawn) [vigabatrin] the “Adverse Event Seriousness” value was 13.32, the Outcome was 13.81 and the ROR was 4.80. It also gave a RxScore of 51.42.
With `O=P(O)(O)C(O)(Cn1ccnc1)P(=O)(O)O` [zoledronic acid (Reclast), zoledronic acid] the “Adverse Event Seriousness” value was 12.33, the Outcome was 16.89 and the ROR was 3.53. It also gave a RxScore of 53.23.
For `O=P(O)(O)C(O)(Cn1ccnc1)P(=O)(O)O` [zoledronic acid (Zometa), zoledronic acid], the “Adverse Event Seriousness” value was 14.61, the Outcome was 7.55 and the ROR was 10.08. For the same compound, the RxScore was 53.50.
For `NS(=O)(=O)Cc1noc2ccccc12` [zonisamide], the “Adverse Event Seriousness” value was 11.03, the Outcome was 13.71 and the ROR was 4.73. It also gave a RxScore of 49.83.

Conditions: Example 1 component score, up to 8.68 points
In the case of `NCCCC(O)(P(=O)(O)O)P(=O)(O)O` [alendronate], the “Condition Seriousness” value is reported as 7.02.
In the case of `COc1ccccc1Oc1c(NS(=O)(=O)c2ccc(C(C)(C)C)cc2)nc(-c2ncccn2)nc1OCCO` [bosentan], the “Condition Seriousness” value is reported as 2.07.
For `CS(=O)(=O)OCCCCOS(C)(=O)=O` [busulfan], the “Condition Seriousness” value was 2.52.

Same assay, conditions: human
Work on `NCCCC(O)(P(=O)(O)O)P(=O)(O)O` [alendronate] yielded a Literature of 5.0.
With `COc1ccccc1Oc1c(NS(=O)(=O)c2ccc(C(C)(C)C)cc2)nc(-c2ncccn2)nc1OCCO` [bosentan] the ROR was 3.81 and the RxScore was 81.44.
For `CS(=O)(=O)OCCCCOS(C)(=O)=O` [busulfan], the “Adverse Event Seriousness” value was 14.67, the Literature was 12.5 and the Outcome was 15.73. For the same compound, the ROR was 7.15 and the RxScore was 86.04.
For `Nc1nc(F)nc2c1ncn2[C@@H]1O[C@H](CO)[C@@H](O)[C@@H]1O` [fludarabine], the “Adverse Event Seriousness” value was 12.69, the Literature was 12.5 and the Outcome was 15.34. The ROR was 4.60 and the RxScore was 78.34.
With `CCC(=O)C(CC(C)N(C)C)(c1ccccc1)c1ccccc1` (stereo not drawn) [methadone] the Literature was 18.8 and the ROR was 4.85.

Source: US20140358576A1, “SYSTEM AND METHOD FOR SURVEILLANCE AND EVALUATION OF SAFETY RISKS ASSOCIATED WITH MEDICAL INTERVENTIONS” (Adverse Events, Inc., priority 2013, published 2014)
